Values of other authors in patent publication US5942536A, “N-[2-substituted-3-(2-aminoethyl)-1H-indol-5-YL]-Amides: new 5-HT1F agonists” (Eli Lilly and Company, priority 1998, dated 1999).

Columns and labels:
5-HT1F receptor = molecular target: T1, 5-HT1F receptor (Homo sapiens, UniProt P30939); details: literature (Weinshank); reference for Emax
T1 sequence (P30939 1-366): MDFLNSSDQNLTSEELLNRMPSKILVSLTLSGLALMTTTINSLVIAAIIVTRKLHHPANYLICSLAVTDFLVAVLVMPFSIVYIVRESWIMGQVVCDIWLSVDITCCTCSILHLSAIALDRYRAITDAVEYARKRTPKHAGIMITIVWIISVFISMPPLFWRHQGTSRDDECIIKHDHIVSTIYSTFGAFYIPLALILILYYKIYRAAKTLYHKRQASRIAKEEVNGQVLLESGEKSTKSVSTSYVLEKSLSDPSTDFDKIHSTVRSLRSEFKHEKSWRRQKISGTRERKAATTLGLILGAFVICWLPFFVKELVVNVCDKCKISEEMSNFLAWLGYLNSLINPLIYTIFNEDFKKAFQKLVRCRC

[1] = tested on: cephalic vascular smooth muscle; details: literature (Humphrey, et al.)
[2] = literature (Humphrey, et al.)
neurogenic inflammation = details: literature (Moskowitz)

effect on forskolin stimulated cAMP production (5-HT1F receptor) | SMILES | contraction of cephalic vascular smooth muscle [1] | effective in the treatment of migraine [2] | block of neurogenic inflammation (neurogenic inflammation)
maximal effect | NCCc1c[nH]c2ccc(O)cc12 [serotonin] | – | – | –
– | CNS(=O)(=O)Cc1ccc2[nH]cc(CCN(C)C)c2c1 [sumatriptan] | contract cephalic vascular smooth muscle | effective in the treatment of migraine | blocked
